Patent publication US7022725B2, “Isoxazole derivatives” (Takeda Pharmaceutical Company Limited, priority 2000, dated 2006)

Tests used:
Male SD rats = test: Hypoglycemic action in rats (oral glucose tolerance test); type: in vivo; details: Rattus norvegicus, 0.5 h, male SD rats fasted overnight, glucose load 2 g/kg 60 min later, blood drawn 30 min after starting glucose loading, read-out: glucose level (% of control); for response vs control in vivo at 30 mg/kg: 30 mg/kg body weight oral; for response vs control in vivo at 50 mg/kg: 50 mg/kg body weight oral
Experimental: Hypoglycemic Action in Rats
Male SD rats (7 weeks of age, 5 per group) were fasted overnight and blood was drawn from the tail vein to measure the glucose level before administration of the test compound. Then the test compound (30 mg/kg body weight/10 mL (compounds of Examples 8, 16, 66, 68, 79, 94, 123) or 50 mg/kg body weight/10 mL (compounds of Examples 58, 70)) suspended in 0.5% methyl cellulose was orally administered to the rats using a gastric tube. Oral glucose tolerance test (2 g/kg body weight/10 mL) was started 60 min later. Blood was drawn at 30 min after starting the glucose loading, and glucose level was measured. The glucose level was measured using an automatic analyzer (HITACHI 7070).

[1] = system: pancreatic Langerhans' islet of rats; test: Insulin secretion promoting action in pancreatic Langerhans' islet of rats; type: cell-based, rat; details: test compound 100 μmol/L, 7.5 mmol/L glucose, 1 hr incubation; insulin secretion amount relative to control group, amended by DNA amount
Experimental: Insulin Secretion Promoting Action in Pancreatic Langerhans' Islet of Rats
The pancreas of 8-week-old male SD rat was treated with collagenase and the isolated Langerhans' islet was preincubated for 1 hr in a medium (KRB) containing 2.8 mmol/L glucose in a 24 well incubation plate, which was followed by incubation for 1 hr in KRB containing the test compound (100 μmol/L, see Table 2) and 7.5 mmol/L glucose (control group was free of test compound). The medium was recovered and the amount of the secreted insulin was measured using a radioimmunoassay kit (trademark: SHIONORIA insulin kit (manufactured by Shionogi & Co., Ltd.)). The Langerhans' islet was lysed by ultrasonication and the DNA amount was measured, based on which the insulin level in the medium was amended. The insulin secretion amount of the test compound group is expressed in a value (%) relative to the control group and shown in Table 2.

Row | Structure (SMILES) | melting point [°C] | other results
1 | OCCCc1cnoc1-c1ccc(Cl)s1 [Example 66, 3-[5-(5-chloro-2-thienyl)-4-isoxazolyl]propan-1-ol] |  | response vs control in vivo at 30 mg/kg (Male SD rats): 80%
2 | O=C(O)CCc1cnoc1-c1ccc(F)c(F)c1 [Example 77, 3-[5-(3,4-difluorophenyl)-4-isoxazolyl]propionic acid] | 102 to 103 | insulin secretion promoting action (%) [1]: 201%
3 | OCCCc1cnoc1-c1ccc(Cl)cc1 [Example 16, 3-[5-(4-chlorophenyl)-4-isoxazolyl]propan-1-ol] |  | response vs control in vivo at 30 mg/kg (Male SD rats): 88%
4 | OCCCc1cnoc1-c1ccc(Cl)c(Cl)c1 [Example 68, 3-[5-(3,4-dichlorophenyl)-4-isoxazolyl]propan-1-ol] |  | response vs control in vivo at 30 mg/kg (Male SD rats): 75%
5 | OCCCc1cnoc1-c1ccc(F)cc1 [Example 58, 3-[5-(4-fluorophenyl)-4-isoxazolyl]propan-1-ol] |  | response vs control in vivo at 50 mg/kg (Male SD rats): 85%
6 | O=C(O)CCc1cnoc1-c1ccc(Cl)s1 [Example 64, 3-[5-(5-chloro-2-thienyl)-4-isoxazolyl]propionic acid] | 138 to 139 | insulin secretion promoting action (%) [1]: 273%
7 | O=C(O)CCc1cnoc1-c1ccc(Cl)c(Cl)c1 [Example 70, 3-[5-(3,4-dichlorophenyl)-4-isoxazolyl]propionic acid] | 171 to 172 | response vs control in vivo at 50 mg/kg (Male SD rats): 88%; insulin secretion promoting action (%) [1]: 235%
8 | O=C(O)CCc1cnoc1-c1ccc(Cl)cc1 [Example 8, 3-[5-(4-chlorophenyl)-4-isoxazolyl]propionic acid] |  | response vs control in vivo at 30 mg/kg (Male SD rats): 85%; insulin secretion promoting action (%) [1]: 256%
9 | O=C(O)CCc1cnoc1-c1cc(Cl)c(Cl)s1 [Example 123, 3-[5-(4,5-dichloro-2-thienyl)-4-isoxazolyl]propionic acid] | 142 to 143 | response vs control in vivo at 30 mg/kg (Male SD rats): 86%
10 | O=C(O)CCc1cnoc1-c1cc(Cl)cc(Cl)c1 [Example 74, 3-[5-(3,5-dichlorophenyl)-4-isoxazolyl]propionic acid] | 143 to 144 | 
11 | Cc1noc(-c2ccccc2)c1/C=C/C(=O)O [Example 136, (E)-3-(3-methyl-5-phenyl-4-isoxazolyl)propenoic acid] | 173 to 174 | 
12 | COc1ccc(-c2oncc2CCC(=O)O)cc1 [Example 13, 3-[5-(4-methoxyphenyl)-4-isoxazolyl]propionic acid] | 101 to 102 | 
13 | OCCCc1cnoc1-c1ccc(F)c(F)c1 [Example 79, 3-[5-(3,4-difluorophenyl)-4-isoxazolyl]propan-1-ol] |  | response vs control in vivo at 30 mg/kg (Male SD rats): 77%
14 | Cc1cc(-c2oncc2CCCO)ccc1Cl [Example 97, 3-[5-(4-chloro-3-methylphenyl)-4-isoxazolyl]propan-1-ol] | 50 to 51 | 
15 | O=C(O)CCc1cnoc1-c1ccc(C(F)(F)F)cc1 [Example 10, 3-[5-(4-trifluoromethylphenyl)-4-isoxazolyl]propionic acid] | 171 to 172 | 
16 | O=C(O)CCc1cnoc1-c1cccc(Cl)c1 [Example 86, 3-[5-(3-chlorophenyl)-4-isoxazolyl]propionic acid] | 110 to 111 | 
17 | O=C(O)CCc1cnoc1-c1ccc(Cl)cc1Cl [Example 69, 3-[5-(2,4-dichlorophenyl)-4-isoxazolyl]propionic acid] | 106 to 107 | 
18 | Cc1onc(-c2cccc(C(F)(F)F)c2)c1CCC(=O)O [Example 145, 3-[5-methyl-3-(3-trifluoromethylphenyl)-4-isoxazolyl]propionic acid] | 63 to 64 | 
19 | OCCCc1cnoc1-c1ccc(C(F)(F)F)cc1 [Example 62, 3-[5-(4-trifluoromethylphenyl)-4-isoxazolyl]propan-1-ol] | 85 to 86 | 
20 | O=C(O)CCc1c(-c2ccccc2)noc1-c1ccccc1 [Example 146, 3-[3,5-diphenyl-4-isoxazolyl]propionic acid] | 152 to 153 | 
21 | O=C(O)CCc1cnoc1-c1ccc([N+](=O)[O-])cc1 [Example 80, 3-[5-(4-nitrophenyl)-4-isoxazolyl]propionic acid] | 204 to 205 | 
22 | O=C(O)CCc1cnoc1-c1ccc(OC(F)(F)F)cc1 [Example 1, 3-[5-(4-trifluoromethoxyphenyl)-4-isoxazolyl]propionic acid] | 116 to 118 | 
23 | OCCCc1cnoc1-c1ccc(F)c(Cl)c1 [Example 94, 3-[5-(3-chloro-4-fluorophenyl)-4-isoxazolyl]propan-1-ol] |  | response vs control in vivo at 30 mg/kg (Male SD rats): 81%
24 | O=C(O)CCc1cnoc1-c1ccc(F)cc1 [Example 11, 3-[5-(4-fluorophenyl)-4-isoxazolyl]propionic acid] | 126 to 127 | 
25 | O=C(O)CCc1cnoc1-c1ccc(F)c(Cl)c1 [Example 92, 3-[5-(3-chloro-4-fluorophenyl)-4-isoxazolyl]propionic acid] | 118 to 119 | insulin secretion promoting action (%) [1]: 156%
26 | Cc1noc(-c2ccccc2)c1CCC(N)=O [Example 28, 3-(3-methyl-5-phenyl-4-isoxazolyl)propionamide] | 149 to 151 | 
